One data set deals with Recombinant SIK2 (Homo sapiens (Human), UniProt Q9H0K1). Nature of the data set: biochemical. The note with it: recombinant SIK2 2.5 nM, 1 μM ATP; read-out: SIK2 IC50.
A further data set concerns the target SIK3 (Homo sapiens (Human), UniProt Q9Y2K2). In words: In vitro SIK3 kinase assay. It is filed as biochemical. How it is done:
(§1) Assays were performed in base reaction buffer (20 mM Hepes (pH 7.5), 10 mM MgCl2, 1 mM EGTA, 0.02% Brij35, 0.02 mg/mL BSA, 0.1 mM Na3VO4, 2 mM DTT, 1% DMSO). Compounds were dissolved in 100% DMSO in a 10 mM stock. […] Assays were performed for 20 minutes at room temperature, after which time ^33P-ATP (10 μCi/μL) was added followed by incubation for another 120 minutes at room temperature. Thereafter, radioactivity incorporated into the pEY peptide substrate was detected by filter-binding method. Kinase activity data were expressed as the percent remaining kinase activity in test samples compared to DMSO reactions. IC50 values and curve fits were obtained using Prism (GraphPad Software).

The target in a further data set is SIK1 (Homo sapiens (Human), UniProt P57059). In words: In vitro SIK1 kinase assay. It is filed as biochemical. As to the method:
as §1

Data set [1] addresses NanoLuc-SIK2 fusion in HEK293 cells (Homo sapiens (Human), UniProt Q9H0K1). Nature of the data set: cell-based. As to the method: Assays were performed at Reaction Biology Corporation (Malvern, PA) in HEK293 cells from ATCC in 384 well plate format using Promega's NanoBRET TE intracellular kinase assay platform. HEK293 cells transiently expressing NanoLuc-SIK2 fusion vector were seeded into 384 well plates. Cells were pre-treated with the NanoBRET Tracer K-4 and then treated with compounds for 60 minutes in 10 point dose response format. […] IC50 values were calculated and IC50 curves were plotted using the GraphPad Prism 4 program on a sigmoidal dose response equation.

The next data set relates to CRTC2 (TORC2). Nature of the data set: CRTC2 nuclear translocation (PathHunter U2OS). It is filed as cell-based. To be noted: maximal CRTC2 nuclear translocation, U2OS cells, 90 minutes, maximum dose 10 μM. In a few lines: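 U2OS enzyme-fragment complementation cells (ED-tagged CRTC2, EA-tagged nuclear TAZ domain) treated 90 minutes, duplicate 5-point 4-fold dilutions from 10 μM. Chemiluminescent substrate signal; maximal translocation expressed as percent of forskolin-stimulated signal.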

For a further data set, the system named is RANKL. Nature of the data set: RANKL gene expression in Ocy454 cells (RT-qPCR).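 Further: Ocy454 cells moved to 37 °C for osteocytic differentiation before compound exposure, RANKL mRNA by SYBR Green qRT-PCR, 2^−ΔΔCT with β-actin normalization, duplicate wells.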 To be noted: maximal RANKL fold induction versus DMSO, four hours.
For data set [2], the system named is 12 week old female C57B6 mice, sham or OVX. Nature of the data set: Ovariectomy (OVX) mouse model of post-menopausal osteoporosis. The format is in vivo. The source says: Recent reports have described the signaling pathway used by PTH in target cells in bone (see e.g., Wein et al, Nature Communications, 2016, 7:13176; Wein et al, Trends Endocrinol Metab. 2018; and Nishimori et al, J. Clin. Invest. 2019). One step in this cascade is that PTH signaling leads to PKA-dependent inhibition of salt inducible kinases (SIKs). Small molecule SIK inhibitors, such as YKL-05-099 (see e.g., Sundberg et al, ACS chemical biology, 2016; and Tarumoto et al, Blood, 2019), a tool compound that inhibits all 3 SIK isoforms, mimic the actions of PTH (see e.g., Wein et al, Nature Communications, 2016, 7:13176). The efficacy of YKL-05-099 has been tested in mice rendered hypo-gonadal by surgical removal of the ovaries, a model of post-menopausal osteoporosis. […] Therefore, mice were generated where SIK2/3 can be deleted ubiquitously in a tamoxifen-dependent manner to assess the safety and skeletal efficacy of selective SIK2/3 deletion in adult animals.

Where [3] appears, read: HEK293 cells, compounds for 60 minutes, read-out: SIK2 NanoBRET.
Where [4] appears, read: mice, YKL-05-099 18 mg/kg once daily for 4 weeks.

Entries after “also recorded” stand apart in the source; their conditions may differ. Like-named read-outs stand apart in the source and are kept apart here.

Sequence of NanoLuc-SIK2 fusion in HEK293 cells (Q9H0K1 whole entry, the tested form may be a part): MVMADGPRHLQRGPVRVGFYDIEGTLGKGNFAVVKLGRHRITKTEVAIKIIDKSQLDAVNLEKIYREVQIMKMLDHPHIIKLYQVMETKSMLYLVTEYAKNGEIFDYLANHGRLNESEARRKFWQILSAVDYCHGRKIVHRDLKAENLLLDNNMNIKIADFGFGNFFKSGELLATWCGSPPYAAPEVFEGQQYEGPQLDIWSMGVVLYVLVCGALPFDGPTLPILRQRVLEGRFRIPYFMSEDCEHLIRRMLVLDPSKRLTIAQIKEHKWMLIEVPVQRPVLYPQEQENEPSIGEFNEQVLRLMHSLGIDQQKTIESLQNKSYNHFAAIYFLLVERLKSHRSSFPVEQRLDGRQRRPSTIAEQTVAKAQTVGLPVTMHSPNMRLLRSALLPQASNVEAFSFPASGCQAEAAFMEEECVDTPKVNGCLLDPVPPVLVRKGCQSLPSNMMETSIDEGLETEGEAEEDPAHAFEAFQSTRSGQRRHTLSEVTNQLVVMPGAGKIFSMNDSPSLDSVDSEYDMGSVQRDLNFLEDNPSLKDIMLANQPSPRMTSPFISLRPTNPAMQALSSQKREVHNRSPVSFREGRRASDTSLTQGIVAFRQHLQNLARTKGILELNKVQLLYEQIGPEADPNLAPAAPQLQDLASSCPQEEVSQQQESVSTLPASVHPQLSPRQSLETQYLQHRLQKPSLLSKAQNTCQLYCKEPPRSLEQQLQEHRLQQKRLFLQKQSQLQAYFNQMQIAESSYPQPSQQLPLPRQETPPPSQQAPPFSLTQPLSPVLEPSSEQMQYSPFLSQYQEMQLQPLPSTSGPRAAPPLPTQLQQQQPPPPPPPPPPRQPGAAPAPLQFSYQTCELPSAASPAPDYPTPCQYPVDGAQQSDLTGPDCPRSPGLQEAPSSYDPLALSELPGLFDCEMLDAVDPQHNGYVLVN
Sequence of Recombinant SIK2 (Q9H0K1 whole entry): as the sequence (Q9H0K1 whole entry, the tested form may be a part) above
Sequence of SIK1 (P57059 whole entry): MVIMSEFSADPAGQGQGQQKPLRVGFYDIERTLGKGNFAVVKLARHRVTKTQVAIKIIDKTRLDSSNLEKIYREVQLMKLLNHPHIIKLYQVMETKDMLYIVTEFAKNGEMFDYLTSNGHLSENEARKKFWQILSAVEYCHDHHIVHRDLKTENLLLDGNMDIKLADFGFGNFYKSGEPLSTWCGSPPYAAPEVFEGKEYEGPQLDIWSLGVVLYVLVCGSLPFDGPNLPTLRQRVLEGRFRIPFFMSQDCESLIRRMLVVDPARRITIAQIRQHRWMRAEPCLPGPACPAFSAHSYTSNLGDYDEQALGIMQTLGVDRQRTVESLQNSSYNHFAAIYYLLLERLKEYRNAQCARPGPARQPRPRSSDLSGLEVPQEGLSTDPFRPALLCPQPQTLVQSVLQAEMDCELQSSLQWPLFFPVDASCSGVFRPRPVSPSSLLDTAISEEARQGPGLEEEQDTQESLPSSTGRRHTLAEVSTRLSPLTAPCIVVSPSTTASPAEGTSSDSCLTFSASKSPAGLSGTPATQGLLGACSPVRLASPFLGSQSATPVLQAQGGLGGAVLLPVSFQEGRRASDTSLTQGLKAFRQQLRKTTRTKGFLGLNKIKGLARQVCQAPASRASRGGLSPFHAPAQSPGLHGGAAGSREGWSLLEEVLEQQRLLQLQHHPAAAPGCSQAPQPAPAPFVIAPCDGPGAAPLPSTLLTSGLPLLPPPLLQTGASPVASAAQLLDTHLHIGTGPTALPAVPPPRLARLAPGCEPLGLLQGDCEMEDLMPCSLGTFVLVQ
Sequence of SIK3 (Q9Y2K2 whole entry): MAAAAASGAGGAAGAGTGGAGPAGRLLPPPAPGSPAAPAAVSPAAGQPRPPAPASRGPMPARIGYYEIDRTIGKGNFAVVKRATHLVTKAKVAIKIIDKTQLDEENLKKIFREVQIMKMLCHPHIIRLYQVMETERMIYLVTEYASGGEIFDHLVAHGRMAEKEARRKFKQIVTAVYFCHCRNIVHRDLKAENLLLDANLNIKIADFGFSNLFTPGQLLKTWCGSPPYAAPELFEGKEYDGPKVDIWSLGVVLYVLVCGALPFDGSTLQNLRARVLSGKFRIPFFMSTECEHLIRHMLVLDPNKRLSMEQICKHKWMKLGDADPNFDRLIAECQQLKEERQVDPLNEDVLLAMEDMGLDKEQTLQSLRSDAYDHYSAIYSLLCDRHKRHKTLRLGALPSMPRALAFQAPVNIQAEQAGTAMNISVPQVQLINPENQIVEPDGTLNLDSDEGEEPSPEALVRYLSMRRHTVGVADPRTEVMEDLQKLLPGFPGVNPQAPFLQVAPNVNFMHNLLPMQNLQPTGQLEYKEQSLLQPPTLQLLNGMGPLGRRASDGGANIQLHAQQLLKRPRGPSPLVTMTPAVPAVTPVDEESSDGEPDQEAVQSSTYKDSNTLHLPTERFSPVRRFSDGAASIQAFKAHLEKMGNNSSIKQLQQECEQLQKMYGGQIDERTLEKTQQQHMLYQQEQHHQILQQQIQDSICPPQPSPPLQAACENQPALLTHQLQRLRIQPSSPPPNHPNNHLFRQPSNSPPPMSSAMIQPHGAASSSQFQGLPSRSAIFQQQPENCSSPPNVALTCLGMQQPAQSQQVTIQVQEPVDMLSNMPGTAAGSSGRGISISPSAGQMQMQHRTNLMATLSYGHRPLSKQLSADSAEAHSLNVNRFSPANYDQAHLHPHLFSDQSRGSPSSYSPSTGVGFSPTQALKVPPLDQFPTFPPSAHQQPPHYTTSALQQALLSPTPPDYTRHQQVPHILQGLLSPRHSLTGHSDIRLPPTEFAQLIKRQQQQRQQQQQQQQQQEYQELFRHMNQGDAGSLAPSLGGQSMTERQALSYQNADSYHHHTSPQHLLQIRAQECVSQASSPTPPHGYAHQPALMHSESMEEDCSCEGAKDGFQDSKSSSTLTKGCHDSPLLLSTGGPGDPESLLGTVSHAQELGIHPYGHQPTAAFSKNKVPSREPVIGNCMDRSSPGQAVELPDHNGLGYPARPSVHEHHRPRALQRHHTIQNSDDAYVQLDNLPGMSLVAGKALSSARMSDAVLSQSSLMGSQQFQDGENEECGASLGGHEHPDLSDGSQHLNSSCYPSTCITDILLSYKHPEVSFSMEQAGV

Turning to `N#Cc1ccc(-c2cnn3cc(C(=O)NCc4nc5cccnc5[nH]4)ccc23)cc1` [Example 35, 3-(4-Cyanophenyl)-N-(3H-imidazo[4,5-b]pyridin-2-ylmethyl)pyrazolo[1,5-a]pyridine-6-carboxamide], the IC50 at Recombinant SIK2 was found to be 7.55 nM; on SIK3, 103 nM; against SIK1, 2090 nM; in data set [1], 93.2 nM. The “CRTC2 Efficacy (% of forskolin)” value in the data set on CRTC2 (TORC2) is listed as 8.9 % of forskolin. The “RANKL Fold Induction” value with RANKL amounted to 0.39 fold.
With `N#Cc1ccc(-c2cnn3cc(C(=O)NCc4cccnc4)ccc23)cc1` [Example 37, 3-(4-Cyanophenyl)-N-(3-pyridylmethyl)pyrazolo[1,5-a]pyridine-6-carboxamide], the IC50 on Recombinant SIK2 came to 32.5 nM; against SIK3, 310 nM; against SIK1, 775 nM; in data set [1] (setting [3]), 116 nM. Besides, the “CRTC2 Efficacy (% of forskolin)” value with CRTC2 (TORC2) is listed as 40.6 % of forskolin. Also, the “RANKL Fold Induction” value in the data set on RANKL worked out at 1.17 fold.
Turning to `N#Cc1ccc(-c2cnc3cc(-c4cnn(C5CC5)c4)ccn23)cc1` [Example 49, 4-(7-(1-cyclopropyl-1H-pyrazol-4-yl)imidazo[1,2-a]pyridin-3-yl)benzonitrile], the IC50 stood at 0.101 nM at Recombinant SIK2, 1.43 nM on SIK3, 2.16 nM at SIK1 and 1.36 nM in data set [1] (setting [3]). The “CRTC2 Efficacy (% of forskolin)” value in the data set on CRTC2 (TORC2) is 92.2 % of forskolin. In addition, the “RANKL Fold Induction” value in the data set on RANKL came out at 6.31 fold.
Consider `COc1ccc(N2C(=O)N(c3c(C)cccc3Cl)Cc3cnc(Nc4ccc(C5CCN(C)CC5)cc4OC)nc32)nc1` [YKL-05-099], for which the “bone density / bone mass and bone formation” value in data set [2] (OVX mice, once daily for 4 weeks, PTH 100 mcg/d, YKL-05-099 18 mg/kg) was “comparable/superior efficacy; also recorded: increase bone density and bone formation rate”. Also, in data set [2] (setting [4]), the “BUN levels / renal function” value is “impaired renal function; also recorded: increased” and the fasting glucose result is “hyper-glycemia; also recorded: increased”.

The values are drawn from patent US20240025892A1 (priority 2020, published 2024).
